Several values for one entry are separate records, joined by “and”; a condition that tells them apart may be missing. Equal entries are not always repeated.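 Tested at 5 concentrations; 48 h exposure; 96-well plates; endpoints linearly interpolated, else capped at highest concentration. At the GI50, growth is halved. At the TGI there is no net growth.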
Columns and labels:
Assay in all cases: NCI anticancer screen, dose series, 48 h
[1] = test system: K-562 leukemia
[2] = test system: SK-MEL-5 melanoma
[3] = test system: SF-539 CNS
[4] = test system: SNB-19 CNS
[5] = test system: HS 578T breast
[6] = test system: CAKI-1 renal
[7] = test system: SR leukemia
[8] = test system: MALME-3M melanoma
[9] = test system: A549 NSCLC
[10] = test system: SK-OV-3 ovarian

| SMILES | TGI [1] | TGI [2] | TGI [3] | TGI [4] | TGI [5] | TGI [6] | TGI [7] | TGI [8] | TGI [9] | TGI [10] | GI50 [1] | GI50 [2] | GI50 [3] | GI50 [4] | GI50 [5] | GI50 [6] | GI50 [7] | GI50 [8] | GI50 [9] | GI50 [10] |
| --- | --- | --- | --- | --- | --- | --- | --- | --- | --- | --- | --- | --- | --- | --- | --- | --- | --- | --- | --- | --- |
| c1ccc2c(c1)-c1ccccc1C2N1CC2CCC(CC2)C1 | 36.6 µM | 32.6 µM | 48.9 µM | 92.4 µM | 33.2 µM | > 100 µM | 50.6 µM | 27.6 µM | > 100 µM | > 100 µM | – | – | – | – | – | – | – | – | – | – |
| COc1cc2c(cc1OCCCCCCN1CCN(c3ncnc4ccccc34)CC1)N=CC1CCCN1C2=O (stereo not given) | – | 0.287 µM | 0.402 µM | 3.54 µM | 0.666 µM | 0.436 µM | < 0.0321 µM | 0.376 µM | 5.55 µM | 7.47 µM | 0.0446 µM | 0.139 µM | 0.109 µM | 0.208 µM | 0.0887 µM | 0.0331 µM | < 0.0174 µM | 0.158 µM | 0.275 µM | 0.637 µM |
| C=C[C@H]1CCC/C=C/[C@@H]2C[C@H](O)C[C@H]2[C@H](O)/C=C/C(=O)O1 | > 100 µM | 0.0238 µM | > 100 µM | > 100 µM | > 100 µM | > 100 µM | – | 1.89 µM | > 100 µM | > 93.5 µM | 0.0478 µM | < 0.0129 µM | 0.0531 µM | 0.0542 µM | < 0.01 µM | 0.035 µM | 0.0319 µM | 0.034 µM | 0.0415 µM | 0.0406 µM |
| Cc1cc(I)cc(CN(C)CCN2CCCC2)c1O | 26.4 µM | 34.8 µM | 53.3 µM | > 100 µM | 67.1 µM | > 93.3 µM | 5.84 µM | 44.7 µM | > 100 µM | > 100 µM | 8.53 µM | 20.2 µM | 21 µM | 34 µM | 31.6 µM | 29.6 µM | 1.79 µM | 24.3 µM | 37.9 µM | 37.9 µM |
| COc1c(Cl)c2c(c(OC)c1OC)-c1ccc(SC)c(=O)cc1[C@@H](NC(=O)OCC(F)(F)F)CC2 | > 100 µM | 0.0184 µM | < 0.01 µM | > 100 µM | > 100 µM | > 56.8 µM | 17.9 µM | 42.6 µM | > 100 µM | > 100 µM | < 0.01 µM | < 0.01 µM | < 0.01 µM | < 0.01 µM | < 0.01 µM | < 0.0227 µM | < 0.01 µM | < 0.0104 µM | < 0.01 µM | < 0.01 µM |
| COc1ccc2c(CN3CCC[C@H]3C(=O)O)cc3cc4c(cc3c2c1)OCO4 | > 100 µM | 34.2 µM | 29.5 µM | > 100 µM | 48 µM | 88.6 µM | > 100 µM | 17.7 µM | > 100 µM | 51.1 µM | 20.2 µM | 12.2 µM | 10.7 µM | 14 µM | 11.6 µM | 25 µM | 6.23 µM | 2.59 µM | 21.5 µM | 14.6 µM |
| CCOc1ccc(Nc2nc(-c3ccc4c(c3)NC(=O)CO4)cs2)cc1 | > 100 µM | 3.5 µM | > 100 µM | > 100 µM | > 100 µM | 90.7 µM | > 100 µM | 20.4 µM | > 100 µM | > 100 µM | 4.86 µM | 1.65 µM | 16.1 µM | 18.9 µM | 22.5 µM | 19 µM | 4.68 µM | 4.71 µM | 5.14 µM | 32.5 µM |
| C=C1C(=O)[C@@]23CC1C(O)[C@@H](OC(C)=O)[C@@H]2C1(C)C(OC(C)=O)C[C@@H](OC(C)=O)C(C)(C)[C@@H]1C[C@H]3OC(C)=O (stereo not given in full) | 3.71 µM and 2.86 µg/mL | 9.01 µM and 16.5 µg/mL | 3.7 µM and 11.6 µg/mL | > 10 µM and 31.1 µg/mL | > 10 µM and 5.83 µg/mL | > 10 µM and 8.66 µg/mL | 4.6 µM and 1.63 µg/mL | 3.3 µM and 3.14 µg/mL | > 10 µM and 30 µg/mL | > 10 µM and 30.2 µg/mL | 1.55 µM and 0.573 µg/mL | 2.69 µM and 5.05 µg/mL | 1.69 µM and 3.73 µg/mL | > 10 µM and 17.2 µg/mL | 2 µg/mL | 3.03 µg/mL | 1.7 µM and 0.255 µg/mL | 1.57 µM and 1.72 µg/mL | > 10 µM and 13.9 µg/mL | > 10 µM and 16.5 µg/mL |
| Cc1ccc(C(=O)C(Cl)C(Cl)c2ccc(C)cc2)cc1 (stereo not given) | 7.15 µM | 6.68 µM | 6.38 µM | 23.3 µM | 76.3 µM | 5.53 µM | 6.68 µM | 32.1 µM | > 91.8 µM | 30.7 µM | – | – | – | – | – | – | – | – | – | – |
| C[C@@H]1N=C(c2ccc(Br)cc2)Nc2nc3ccccn3c2C1=O | > 100 µM | 40.5 µM | 85.3 µM | > 100 µM | 52 µM | > 100 µM | > 100 µM | > 100 µM | > 100 µM | > 100 µM | 4.13 µM | 2.24 µM | 7.98 µM | 7.45 µM | 2.81 µM | 3.09 µM | 2.42 µM | 15.2 µM | 6.7 µM | 4.41 µM |
| Cc1cc(-c2nnc(N)nc2-c2ccc(F)cc2)cc(Cl)n1 | > 100 µM | > 100 µM | > 100 µM | > 100 µM | > 100 µM | > 100 µM | > 100 µM | > 100 µM | > 100 µM | > 100 µM | 59 µM | 25.5 µM | > 100 µM | > 100 µM | > 100 µM | 43.8 µM | 64 µM | > 100 µM | > 100 µM | > 100 µM |
| Nc1cc(-c2cccc(OC(F)(F)F)c2)nc2ccc(N3CCCC3)cc12 | – | 0.621 µM and 0.67 µM and 0.361 µM | 1.24 µM and 1.54 µM and 1.42 µM | 26.9 µM and > 100 µM | 13.2 µM and > 100 µM | > 100 µM | – | – | 18.6 µM and > 100 µM | > 100 µM | 0.0298 µM and 0.0175 µM and 0.0176 µM | 0.042 µM and 0.0394 µM and 0.0348 µM | 0.0358 µM and 0.0372 µM and 0.0354 µM | 0.0458 µM and 0.0431 µM and 0.0437 µM | 0.051 µM and 0.0484 µM and 0.0347 µM | 0.0515 µM and 0.0489 µM and 0.0417 µM | 0.0275 µM and 0.0154 µM and 0.0135 µM | 0.265 µM and 0.299 µM and 0.246 µM | 0.137 µM and 0.0852 µM and 0.0836 µM | 0.071 µM and 0.0456 µM and 0.0406 µM |

— PubChem BioAssay (NCI)
